Source: patent publication US8026274B2, “Use of oxandrolone in the treatment of burns and other wounds” (Savient Pharmaceuticals, Inc., priority 1996, dated 2011)
Entries after “also recorded” stand apart in the source; their conditions may differ.

Experiments:
[1] = tested on: pressure sores (decubitus ulcers) in a paraplegic patient; assay: Example 3: oxandrolone treatment of pressure sores (decubitus ulcers); type: in vivo, human; details: 20 mg per day orally, preliminary result
Source text: A paraplegic patient was suffering from pressure sores (decubitus ulcers) which had been unhealed for over one year. […] Further experiments using oxandrolone for treatment of pressure sores and other wounds are planned.

[2] = tested on: burn patients (deep burn of 30-50% of body surface); assay: Example 1: effect of oxandrolone on post-burn catabolism (I), recovery phase in burn patients; type: in vivo, human
Description: A study on the effect of oxandrolone on post-burn patients was performed as described below.
The patients included in this study had undergone: • a. catabolic phase until 80-90% of wound closure (4-10 weeks); • b. loss of 15-25% body weight (mostly lean body mass) during catabolic phase despite optimum nutrition;
The transition from “catabolic” to recovery “anabolic” was defined by: • a. No need for life support measures, being stable and out of the Intensive Care Unit (ICU); • b. No active infection (stress); • c. Open wound (not counting donor sites) not exceeding 10% Total Body Surface (TBS); • d. Patient taking oral diet with supplements or tube feeding (off parenteral feeding); • e. patient can actively participate in a physical therapy program with active ROM exercises accentuating the anabolic stimulus of exercise.
All patients were located in the burn step-down unit or in an acute rehabilitation hospital where daily information is retrieved from the physiatrist, nutritionist, and therapist.
The patients were divided into three groups in a prospective randomized manner: • Group 1: Standard nutritional goals as defined by the nutrition support service. • Group 2: Same as Group 1 plus 2-3 Met-Rx™ (protein supplement) per day (sufficient protein to increase daily protein intake to 2-2.2 g/kg/day). • Group 3: Same as Group 2 plus oxandrolone 20 mg orally four times daily. Measurements
The following factors were checked: • a. Subjective energy level (per Braintree study) 0-10; • b. Physical therapy index^1 (per Braintree study) 0-10: • 0 completes 25% session with fatigue • 2 completes 50% session with fatigue • 4 completes 75% session with fatigue • 6 completes 100% session with fatigue • 8 completes 100% session with no fatigue • 10 completes 100% session and more with no fatigue; • c. Weekly weight gain; • d. Daily nutritional profiles; • e. Measurement of lean body mass by bioelective impedance. ^1 assessment of muscle strength and endurance
The onset of the study was defined as the onset of the recovery phase (anabolic phase). Patients were studied for 3 weeks (from the onset of anabolism).

[3] = tested on: burn patients (deep burn of 30-50% of body surface); assay: Example 2: effect of oxandrolone on post-burn catabolism (II), first three weeks of recovery phase; type: in vivo, human
Description: Another study on the effect of oxandrolone on post-burn patients was carried out as follows.
The onset of the study was defined as the onset of the recovery phase (anabolic phase). The study period included the first three weeks of the recovery phase. Although somewhat arbitrary, the beginning of the recovery period was determined for all patients using the following criteria: • a. No need for life support measures, with a stable cardiopulmonary status; • b. No active infection; • c. Basal body temperature below 99.5° F.; • d. Metabolic rate at rest (indirect calorimetry) being less than 130% of normal; • e. Open wound (not counting donor sites) not exceeding 10% TBS; • f. Patient taking adequate oral diet with supplements or tube feeding and off all parenteral feeding; • g. active participation in a physical therapy program including resistance exercises especially to large muscle groups.
The patients were divided into three groups in a prospective randomized manner: • Group 1: High protein high calorie ad lib oral diet and protein supplement Met-Rx™. The supplement was given in a quantity equal to approximately one liter so that total protein intake would approximate 2 g/kg/day. • Group 2: Same as Group I with the addition of oxandrolone 10 mg orally twice a day. • Group 3: ad lib oral diet and a protein hydrolysate supplement (Ensure-HN or Sustacal). These supplements contain approximately 40-45 g/l protein, 140-150 g/l carbohydrate and 30-37 g/l fat. Daily protein intake consumed equalled 1.3-1.5 g/kg or 75% above the RDA value for healthy normals of 0.8 g/kg. This group was managed in the ten months prior to the onset of this study.
All patients were located in the burn/trauma step-down unit and then transferred to an acute rehabilitation hospital usually within the first week of onset of the recovery period. A burn nurse coordinator followed all patients at the rehabilitation hospitals. All patients were monitored until discharge but only the first three week period was used for the study period.
The following factors were checked: • a. Fatigue was measured objectively through increases in pulse of over 75% of predicted maximum (based on age) and a respiratory rate exceeding 30 breaths per minute beyond one minute after completion of the activity. • b. Muscle function was quantitated using a physical therapy index. The physical therapy program was determined for each patient by the burn therapist team based on optimum projected goals to be achieved at the three week period. Standard isokinetic and resistance exercises were used to increase strength. Ambulation, stair climbing and the stationary bike were used to increase endurance. Since the basic components of therapy programs were nearly identical between patients, an index was developed which quantitated progress of patient performance:
• c. Body weight; • d. Daily nutritional profiles; • e. Liver function
Within each group, paired data was analyzed using Dunnett's T-test comparing individual time periods. Between groups, analysis was compared by use of a nonparametric method, the Wilcoxan Signed Rank Test. Standard regression analysis was also performed. A p<0.05 was considered significant.

[4] = in contrast to the majority of oral androgenic anabolic steroids; cited from earlier work
[5] = in vivo; cited from earlier work
[6] = tested on: patients with alcoholic hepatitis; details: dosages of up to 80 mg/day; cited from earlier work
[7] = doses below 80 mg; cited from earlier work
[8] = Group III: oxandrolone 20 mg orally four times daily plus Met-Rx, 3 weeks
[9] = Group 2: oxandrolone 10 mg orally twice a day plus Met-Rx

In the case of C[C@]12COC(=O)C[C@@H]1CC[C@@H]1[C@@H]2CC[C@@]2(C)[C@H]1CC[C@]2(C)O [oxandrolone, 17α-methyl-17β-hydroxy-2-oxa-5α-androstan-3-one], the “healing of pressure sores unhealed for over one year” value [1] is reported as “the sores began to heal”, the “energy level (0-10)” value [2, 8] is reported as “markedly improved” and the “therapy (physical therapy index 0-10)” value [2, 8] is reported as “markedly improved”. The “weight gain relative to Group I (standard nutrition)” value ([2]; Group III: oxandrolone 20 mg orally four times daily plus Met-Rx, 4 patients, 3 weeks) was “four times that of Group I”, the food intake ([2]; Group III: oxandrolone plus Met-Rx, compared with Group II) was “apparent added stimulus to food intake” and the “lean body weight gain as share of weight gain, by bioelective impedance” value ([2]; combination of Met-Rx and oxandrolone) was 80%. The “maintenance of weight after discontinuation” value ([3]; 3 of 6 patients followed for eight weeks after discontinuation of three weeks of oxandrolone) was “the weight remained”, the “average time of discharge from the rehabilitation or recovery phase to home” value [3, 9] was 22 ± 4 days and the “weight gain over the three week period relative to Group 1 (Met-Rx alone)” value [3, 9] was “double that of Group 1”. For the same compound, the “weight gain relative to retrospective Group 3 (standard supplements)” value [3, 9] was “nearly four times that of retrospective Group 3; also recorded: significantly increased”, the “physical therapy index (muscle strength and endurance, 0-10)” value ([3]; Group 2: oxandrolone 10 mg orally twice a day plus Met-Rx, three weeks) was “performance exceeded expectations; also recorded: significantly higher than either of the other groups; also recorded: significantly increased” and the “liver function tests / chemical abnormality” value ([3]; Group 2: oxandrolone 10 mg orally twice a day plus Met-Rx, one patient) was “transient small increase in alkaline phosphatase”. The hirsutism ([3]; the three women in the oxandrolone group) was “No hirsutism”, the hepatic metabolism [4] was “relatively little hepatic metabolism” and the “anabolic activity relative to its androgenic activity” value [5] was “approximately 6 times”. For the same compound, the “anabolic activity relative to that of methyltestosterone” value [5] was 6.3 times, the safety [6] was “safe” and the water retention [7] was “not reported to occur”.
